Assay results from patent US20090082266A1, “CONJUGATE OF WATER-SOLUBLE HYALURONIC ACID MODIFICATION PRODUCT WITH GLP-A ANALOGUE” (priority 2005, published 2009).

Key:
[1] = system: BKS. Cg −+Lepr^db/+Lepr^db/Jcl mice; assay: Oral glucose tolerance test, subcutaneous administration (Example 6-5); assay type: in vivo; conditions: 3000 μg/kg sc, AUC up to 2 hours, mean
Procedure: After 8 weeks old male BKS. Cg −+Lepr^db/+Lepr^db/Jcl mice (Japan CLEA Co. Ltd.) were fasted overnight to 24 hours, the HA-GLP-1 analogue 2 conjugate solution, which was obtained in Example 6-2 and diluted with solvent Z (at a dose as peptide, 300 μg/kg), or solvent Z was subcutaneously administered to the mice. After 6, 24 or 48 hours of the subcutaneous administration, 50% glucose solution (Otsuka Pharamaceutical Co. Ltd.) was orally administered at a dose of 3 g glucose/kg. […] After 2 minutes or 4 hours and 2 minutes of the subcutaneous administration (in the case of solvent Z, after 1 or 5 hours) 50% glucose solution was orally administered at a dose of 3 g glucose/kg. Tests were carried out on groups consisting of 6 mice per group.
Before the glucose administration (0 hour), 0.5, 1 and 2 hours after the administration, blood was collected from the tail, and the blood glucose level was measured by an enzymatic assay (hexokinase method; Reagent, Autosera S GLU (Daiichi Pure Chemicals Co. Ltd.); Instrument, BioMajesty JCA-BM1250 (JEOL Co. Ltd.)).
The blood glucose lowering rate was calculated according to the formula described in Example 5-4.

[2] = in vivo, iv; cited from earlier work
[3] = system: BKS. Cg −+Lepr^db/+Lepr^db/Jcl mice; assay: Oral glucose tolerance test, intravenous administration (Example 5-4); assay type: in vivo; conditions: glucose 3 g/kg orally 1 minute later, AUC up to 4 hours, mean
Procedure: After 8 weeks old male BKS. Cg −+Lepr^db/+Lepr^db/Jcl mice (Japan CLEA Co. Ltd.) were fasted overnight, the HA-GLP-1 analogue 1 conjugate solution, which was obtained in Example 5-2 and diluted with solvent Z (at doses as peptide, 1.5 μg/kg, 15 μg/kg or 150 μg/kg), or solvent Z was intravenously administered to the mice. After 1 minute of the intravenous administration, 50% glucose solution (Otsuka Pharamaceutical Co. Ltd.) was orally administered at a dose of 3 g glucose/kg. […] After 1 minute of the intravenous administration, 50% glucose solution was orally administered at a dose of 3 g glucose/kg. Tests were carried out on groups consisting of 6 mice per group.
Before the glucose administration (0 hour), 0.5, 1, 2 and 4 hours after the administration, blood was collected from the tail, and the blood glucose level was measured by an enzymatic assay (hexokinase method; Reagent, Autosera S GLU (Daiichi Pure Chemicals Co. Ltd.); Instrument, BioMajesty JCA-BM1250 (JEOL Co. Ltd.)).
The blood glucose lowering rate was calculated according to the following formula.

Substance	Blood glucose lowering rate (%) ([1]; glucose 3 g/kg orally 2 Minutes after administration)	Blood glucose lowering rate (%) ([1]; glucose 3 g/kg orally 4 Hour 2 Minutes after administration)	half life [2] [min]	Blood glucose lowering rate (%) ([3]; 150 μg/kg iv (conjugate: as peptide))	Blood glucose lowering rate (%) ([3]; 1500 μg/kg iv)
GLP-1 analogue 0: variant of native GLP-1 (human, 7-37) in which the second (position 8) alanine was converted to glycine (HGEGTFTSDVSSYLEGQAAKEFIAWLVKGRG; Glucagon-like peptide 1(7-37); UniProt P01275 98-128, looked up, variant A8G)	102	18	1 to 5	–	–
GLP-1: native GLP-1 (Human, 7-37; Peptide Institute, Inc.)	–	–	–	15	60
